Experimental data from ChEMBL document CHEMBL4011582, “Human drug-induced liver injury severity is highly associated with dual inhibition of liver mitochondrial function and bile salt export pump” (Hepatology, 2014).

Columns and labels:
clinical = details: human
Bile salt export pump = Bile salt export pump (Homo sapiens, UniProt O95342); type: ADME
Liver = type: ADME, mitochondria, Rattus norvegicus, Sprague-Dawley

Bile salt export pump, sequence (O95342 whole entry): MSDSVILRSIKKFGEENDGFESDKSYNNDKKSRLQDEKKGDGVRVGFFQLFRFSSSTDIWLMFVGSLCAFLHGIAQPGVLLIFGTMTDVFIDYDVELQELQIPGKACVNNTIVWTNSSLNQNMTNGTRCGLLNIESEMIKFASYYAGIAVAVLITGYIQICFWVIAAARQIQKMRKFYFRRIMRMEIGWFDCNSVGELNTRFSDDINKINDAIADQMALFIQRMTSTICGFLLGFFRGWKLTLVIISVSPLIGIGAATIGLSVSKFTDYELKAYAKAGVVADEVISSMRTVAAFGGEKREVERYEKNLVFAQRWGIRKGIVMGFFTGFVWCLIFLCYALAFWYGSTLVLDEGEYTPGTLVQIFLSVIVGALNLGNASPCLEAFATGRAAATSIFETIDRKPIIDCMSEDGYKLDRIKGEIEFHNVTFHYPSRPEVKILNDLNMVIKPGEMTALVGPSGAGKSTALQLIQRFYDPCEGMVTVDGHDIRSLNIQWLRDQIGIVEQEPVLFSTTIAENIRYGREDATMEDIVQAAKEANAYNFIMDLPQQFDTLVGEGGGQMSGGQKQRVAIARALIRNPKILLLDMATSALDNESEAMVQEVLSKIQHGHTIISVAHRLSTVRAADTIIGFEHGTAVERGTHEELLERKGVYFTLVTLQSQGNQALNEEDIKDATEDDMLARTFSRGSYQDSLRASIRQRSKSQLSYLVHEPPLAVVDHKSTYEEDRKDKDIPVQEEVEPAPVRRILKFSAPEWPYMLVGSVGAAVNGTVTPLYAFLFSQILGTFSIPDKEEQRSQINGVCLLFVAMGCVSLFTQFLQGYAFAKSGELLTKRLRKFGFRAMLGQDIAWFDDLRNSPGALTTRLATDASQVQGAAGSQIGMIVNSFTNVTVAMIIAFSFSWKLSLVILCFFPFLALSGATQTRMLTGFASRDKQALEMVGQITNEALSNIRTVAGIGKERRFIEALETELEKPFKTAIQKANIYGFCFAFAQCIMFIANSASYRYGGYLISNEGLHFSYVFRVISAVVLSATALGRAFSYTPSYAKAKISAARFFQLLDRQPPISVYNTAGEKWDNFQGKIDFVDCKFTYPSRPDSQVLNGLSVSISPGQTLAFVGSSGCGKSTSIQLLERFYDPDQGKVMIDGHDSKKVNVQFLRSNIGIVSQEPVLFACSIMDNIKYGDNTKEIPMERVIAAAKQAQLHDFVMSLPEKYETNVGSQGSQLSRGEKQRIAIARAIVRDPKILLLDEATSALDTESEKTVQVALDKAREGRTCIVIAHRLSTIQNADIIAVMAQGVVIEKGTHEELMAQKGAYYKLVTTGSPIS

NS(=O)(=O)c1cc(C(=O)O)c(NCc2ccco2)cc1Cl [FUROSEMIDE]
Cmax (clinical): 18100 nM

Clc1ccc(COC(Cn2ccnc2)c2ccc(Cl)cc2Cl)cc1 (stereo unspecified) [ECONAZOLE]
IC50 (Bile salt export pump): 13.4 µM | Cmax (clinical): 1 nM

COC(=O)C1=C(C)NC(C)=C(C(=O)OCC(C)C)C1c1ccccc1[N+](=O)[O-] (stereo unspecified) [NISOLDIPINE]
IC50 (Liver): Non-Toxic | Cmax (clinical): 12.9 nM

O=c1n(CCCN2CCN(c3cccc(Cl)c3)CC2)nc2ccccn12 [TRAZODONE]
IC50 (Bile salt export pump; read-out: IC50): 90 µM | IC50 (Liver): Non-Toxic | Cmax (clinical): 5060 nM

CC(C)c1nc(CN(C)C(=O)N[C@H](C(=O)N[C@@H](Cc2ccccc2)C[C@H](O)[C@H](Cc2ccccc2)NC(=O)OCc2cncs2)C(C)C)cs1 [RITONAVIR]
IC50 (Liver): Non-Toxic | Cmax (clinical): 19700 nM

CCC1=C(C)CN(C(=O)NCCc2ccc(S(=O)(=O)NC(=O)N[C@H]3CC[C@H](C)CC3)cc2)C1=O [GLIMEPIRIDE]
IC50 (Bile salt export pump; read-out: IC50): 34 µM | IC50 (Liver): Non-Toxic | Cmax (clinical): 1120 nM

Oc1ncnc2[nH]ncc12 [ALLOPURINOL]
IC50 (Bile salt export pump; read-out: IC50): > 100 µM

CC(C)/N=c1\cc2n(-c3ccc(Cl)cc3)c3ccccc3nc-2cc1Nc1ccc(Cl)cc1 [CLOFAZIMINE]
IC50 (Liver): Non-Toxic | Cmax (clinical): 1480 nM

N[C@@H](Cc1cc(I)c(Oc2ccc(O)c(I)c2)c(I)c1)C(=O)O [LIOTHYRONINE]
Cmax (clinical): 108 nM

CCOC(=O)c1ncn2c1CN(C)C(=O)c1cc(F)ccc1-2 [FLUMAZENIL]
IC50 (Bile salt export pump; read-out: IC50): > 100 µM | IC50 (Liver): Non-Toxic | Cmax (clinical): 1120 nM

Nc1nc(=O)c2nc(CNc3ccc(C(=O)N[C@@H](CCC(=O)O)C(=O)O)cc3)cnc2[nH]1 [FOLIC ACID]
IC50 (Liver): Non-Toxic | Cmax (clinical): 135 nM

CN(C)CCC(c1ccc(Br)cc1)c1ccccn1 (stereo unspecified) [BROMPHENIRAMINE]
IC50 (Liver): Non-Toxic | Cmax (clinical): 36 nM

CCCCC1=NC2(CCCC2)C(=O)N1Cc1ccc(-c2ccccc2-c2nnn[nH]2)cc1 [IRBESARTAN]
IC50 (Liver): Non-Toxic | Cmax (clinical): 3500 nM

CC(C)CN(C[C@@H](O)[C@H](Cc1ccccc1)NC(=O)O[C@H]1CCOC1)S(=O)(=O)c1ccc(N)cc1
IC50 (Liver): Non-Toxic | Cmax (clinical): 15200 nM

CCCN(CCC)C(=O)Cc1c(-c2ccc(Cl)cc2)nc2ccc(Cl)cn12 [ALPIDEM]
Cmax (clinical): 285 nM

CO[C@H]1/C=C/O[C@@]2(C)Oc3c(C)c(O)c4c(c3C2=O)C2=NC3(CCN(CC(C)C)CC3)NC2=C(NC(=O)/C(C)=C\C=C\[C@H](C)[C@H](O)[C@@H](C)[C@@H](O)[C@@H](C)[C@H](OC(C)=O)[C@@H]1C)C4=O [RIFABUTIN]
IC50 (Liver): Non-Toxic | Cmax (clinical): 685 nM

CN1CCN(CCCN2c3ccccc3Sc3ccc(C(F)(F)F)cc32)CC1 [TRIFLUOPERAZINE]
IC50 (Liver): Non-Toxic | Cmax (clinical): 5.3 nM

COc1cc(C(=O)NS(=O)(=O)c2ccccc2C)ccc1Cc1cn(C)c2ccc(NC(=O)OC3CCCC3)cc12 [ZAFIRLUKAST]
Cmax (clinical): 1210 nM

CS(=O)(=O)CCNCc1ccc(-c2ccc3ncnc(Nc4ccc(OCc5cccc(F)c5)c(Cl)c4)c3c2)o1 [LAPATINIB]
IC50 (Liver): Non-Toxic | Cmax (clinical): 4180 nM

O=C(O)Cc1ccccc1Nc1c(Cl)cccc1Cl [DICLOFENAC]
IC50 (Bile salt export pump; read-out: IC50): 44 µM

COc1ccc(Cl)cc1C(=O)NCCc1ccc(S(=O)(=O)NC(=O)NC2CCCCC2)cc1 [GLYBURIDE]
Cmax (clinical): 210 nM

CCN(CC)CC#CCOC(=O)C(O)(c1ccccc1)C1CCCCC1 (stereo unspecified) [OXYBUTYNIN]
IC50 (Liver): Non-Toxic | Cmax (clinical): 22 nM

CC(C)(C)NC(=O)[C@@H]1CN(Cc2cccnc2)CCN1C[C@@H](O)C[C@@H](Cc1ccccc1)C(=O)N[C@H]1c2ccccc2C[C@H]1O.O
IC50 (Liver): Non-Toxic | Cmax (clinical): 11700 nM

CC(C)(C)NC(=O)[C@H]1CC[C@H]2[C@@H]3CC[C@H]4NC(=O)C=C[C@]4(C)[C@H]3CC[C@]12C [FINASTERIDE]
IC50 (Liver): Non-Toxic | Cmax (clinical): 99 nM

C[C@H](CCC(=O)O)[C@H]1CC[C@H]2[C@@H]3[C@H](O)C[C@@H]4C[C@H](O)CC[C@]4(C)[C@H]3CC[C@]12C [CHENODIOL]
IC50 (Bile salt export pump; read-out: IC50): 10.6 µM | IC50 (Liver): Non-Toxic | Cmax (clinical): 8000 nM

Cc1c(O)cccc1C(=O)N[C@@H](CSc1ccccc1)[C@H](O)CN1C[C@H]2CCCC[C@H]2C[C@H]1C(=O)NC(C)(C)C
Cmax (clinical): 7040 nM

CC(O)(CS(=O)(=O)c1ccc(F)cc1)C(=O)Nc1ccc(C#N)c(C(F)(F)F)c1 (stereo unspecified) [BICALUTAMIDE]
IC50 (Bile salt export pump; read-out: IC50): 29.3 µM | Cmax (clinical): 1970 nM

CC(=O)N1CCN(c2ccc(OCC3COC(Cn4ccnc4)(c4ccc(Cl)cc4Cl)O3)cc2)CC1 (stereo unspecified) [KETOCONAZOLE]
Cmax (clinical): 12500 nM

Cc1c(C)c2c(c(C)c1O)CCC(C)(COc1ccc(CC3SC(=O)NC3=O)cc1)O2 (stereo unspecified) [TROGLITAZONE]
Cmax (clinical): 6390 nM

CC(C)(C)NCC(O)c1ccc(O)c(CO)c1 (stereo unspecified) [ALBUTEROL]
IC50 (Liver): Non-Toxic | Cmax (clinical): 58 nM

CN(C)C(=O)C(CCN1CCC(O)(c2ccc(Cl)cc2)CC1)(c1ccccc1)c1ccccc1 [LOPERAMIDE]
IC50 (Bile salt export pump; read-out: IC50): 67 µM | IC50 (Liver): Non-Toxic | Cmax (clinical): 8 nM

CC(C)OC(=O)C(C)(C)Oc1ccc(C(=O)c2ccc(Cl)cc2)cc1 [FENOFIBRATE]
IC50 (Bile salt export pump; read-out: IC50): 41 µM | Cmax (clinical): 12100 nM

Cc1cccc(Nc2ccccc2C(=O)O)c1C [MEFENAMIC ACID]
IC50 (Bile salt export pump; read-out: IC50): 57 µM | Cmax (clinical): 26900 nM

CCc1ccc(CCOc2ccc(CC3SC(=O)NC3=O)cc2)nc1 (stereo unspecified) [PIOGLITAZONE]
Cmax (clinical): 2950 nM

CC(C)C(=O)Nc1ccc([N+](=O)[O-])c(C(F)(F)F)c1 [FLUTAMIDE]
IC50 (Bile salt export pump; read-out: IC50): 68 µM | Cmax (clinical): 362 nM

Cc1ccc(NC(=O)c2ccc(CN3CCN(C)CC3)cc2)cc1Nc1nccc(-c2cccnc2)n1 [IMATINIB]
IC50 (Liver): Non-Toxic | Cmax (clinical): 7090 nM

C#C[C@]1(O)CC[C@H]2[C@@H]3CCC4=Cc5oncc5C[C@]4(C)[C@H]3CC[C@@]21C [DANAZOL]
Cmax (clinical): 750 nM

CO[C@H]1/C=C/O[C@@]2(C)Oc3c(C)c(O)c4c(O)c(cc(O)c4c3C2=O)NC(=O)/C(C)=C\C=C\[C@H](C)[C@H](O)[C@@H](C)[C@@H](O)[C@@H](C)[C@H](OC(C)=O)[C@@H]1C [RIFAMYCIN]
IC50 (Bile salt export pump; read-out: IC50): 9.5 µM | IC50 (Liver): Non-Toxic | Cmax (clinical): 2780 nM

COc1cc2ncnc(Nc3ccc(F)c(Cl)c3)c2cc1OCCCN1CCOCC1 [GEFITINIB]
Cmax (clinical): 356 nM

CC[C@H](C)C(=O)O[C@H]1C[C@@H](C)C=C2C=C[C@H](C)[C@H](CC[C@@H]3C[C@@H](O)CC(=O)O3)[C@H]21 [LOVASTATIN]
IC50 (Liver): Non-Toxic | Cmax (clinical): 25 nM

COC(=O)C1=C(C)NC(C)=C(C(=O)OC)C1c1ccccc1[N+](=O)[O-] [NIFEDIPINE]
IC50 (Bile salt export pump; read-out: IC50): 69 µM | IC50 (Liver): Non-Toxic

COCCOC(=O)C1=C(C)NC(C)=C(C(=O)OC(C)C)C1c1cccc([N+](=O)[O-])c1 (stereo unspecified) [NIMODIPINE]
Cmax (clinical): 195 nM

CC(=O)[C@H]1CC[C@H]2[C@@H]3CCC4=CC(=O)CC[C@]4(C)[C@H]3CC[C@]12C [PROGESTERONE]
Cmax (clinical): 193 nM

CCc1oc2ccccc2c1C(=O)c1cc(Br)c(O)c(Br)c1 [BENZBROMARONE]
IC50 (Bile salt export pump; read-out: IC50): 15.9 µM | Cmax (clinical): 4340 nM

C#C[C@]1(OC(C)=O)CC[C@H]2[C@@H]3CCC4=C[C@@H](OC(C)=O)CC[C@@H]4[C@H]3CC[C@@]21C [ETHYNODIOL DIACETATE]
IC50 (Bile salt export pump; read-out: IC50): 62 µM | Cmax (clinical): 29 nM

CCCc1nc2c(C)cc(-c3nc4ccccc4n3C)cc2n1Cc1ccc(-c2ccccc2C(=O)O)cc1
Cmax (clinical): 851 nM

Clc1ccccc1C(c1ccccc1)(c1ccccc1)n1ccnc1 [CLOTRIMAZOLE]
Cmax (clinical): 87 nM

CCc1nn(CCCN2CCN(c3cccc(Cl)c3)CC2)c(=O)n1CCOc1ccccc1 [NEFAZODONE]
IC50 (Bile salt export pump; read-out: IC50): 7 µM | Cmax (clinical): 6800 nM

CC(C)n1c(/C=C/C(O)CC(O)CC(=O)O)c(-c2ccc(F)cc2)c2ccccc21 (stereo unspecified) [FLUVASTATIN]
IC50 (Liver): Non-Toxic | Cmax (clinical): 663 nM

CNC(=O)c1cc(Oc2ccc(NC(=O)Nc3ccc(Cl)c(C(F)(F)F)c3)cc2)ccn1 [SORAFENIB]
Cmax (clinical): 132 nM

CCC(=O)O[C@]1(C(=O)CCl)[C@@H](C)C[C@H]2[C@@H]3CCC4=CC(=O)C=C[C@]4(C)[C@@]3(F)[C@@H](O)C[C@@]21C [CLOBETASOL PROPIONATE]
IC50 (Liver): Non-Toxic | Cmax (clinical): 43 nM

CCCCc1nc(Cl)c(CO)n1Cc1ccc(-c2ccccc2-c2nnn[nH]2)cc1 [LOSARTAN]
IC50 (Liver): Non-Toxic | Cmax (clinical): 651 nM

COC(=O)C1=C(C)NC(C)=C(C(=O)OCCN(C)Cc2ccccc2)C1c1cccc([N+](=O)[O-])c1 (stereo unspecified) [NICARDIPINE]
Cmax (clinical): 81 nM

CC(COc1ccccc1)N(CCCl)Cc1ccccc1 (stereo unspecified) [PHENOXYBENZAMINE]
IC50 (Liver): Non-Toxic | Cmax (clinical): 197 nM

CC(C)(C)NC(=O)[C@@H]1C[C@@H]2CCCC[C@@H]2CN1C[C@@H](O)[C@H](Cc1ccccc1)NC(=O)[C@H](CC(N)=O)NC(=O)c1ccc2ccccc2n1
IC50 (Liver): Non-Toxic | Cmax (clinical): 3360 nM

COc1ccccc1Oc1c(NS(=O)(=O)c2ccc(C(C)(C)C)cc2)nc(-c2ncccn2)nc1OCCO [BOSENTAN]
IC50 (Bile salt export pump; read-out: IC50): 29 µM | Cmax (clinical): 7430 nM

CC1=C(/C=C/C(C)=C/C=C/C(C)=C\C(=O)O)C(C)(C)CCC1 [ISOTRETINOIN]
Cmax (clinical): 2870 nM

CCC(=O)O[C@H]1[C@H](O[C@@H]2[C@@H](C)[C@H](O[C@H]3C[C@@](C)(OC)[C@@H](O)[C@H](C)O3)[C@@H](C)C(=O)O[C@H](CC)[C@@](C)(O)[C@H](O)[C@@H](C)C(=O)[C@H](C)C[C@@]2(C)O)O[C@H](C)C[C@@H]1N(C)C.CCCCCCCCCCCCOS(=O)(=O)O [ERYTHROMYCIN ESTOLATE]
Cmax (clinical): 4200 nM

CC(=O)O[C@H]1C(=O)[C@@]2(C)[C@H]([C@H](OC(=O)c3ccccc3)[C@]3(O)C[C@H](OC(=O)[C@H](O)[C@@H](NC(=O)c4ccccc4)c4ccccc4)C(C)=C1C3(C)C)[C@]1(OC(C)=O)CO[C@@H]1C[C@@H]2O [PACLITAXEL]
IC50 (Liver): Non-Toxic

Cc1ncc2n1-c1ccc(Cl)cc1C(c1ccccc1F)=NC2 [MIDAZOLAM]
IC50 (Liver): Non-Toxic | Cmax (clinical): 650 nM

Cc1ccc(N(CC2=NCCN2)c2cccc(O)c2)cc1 [PHENTOLAMINE]
IC50 (Liver): Non-Toxic | Cmax (clinical): 86 nM
